From patent US10702589B2, “Compositions and methods of treating neurological disorder and stress-induced conditions” (Ann and Robert H. Lurie Children's Hospital of Chicago, priority 2016, dated 2020) come the findings set out here.

The test relates to AkrRE1/2 luciferase reporters. The experiment in a line: AkrRE1/2 luciferase reporter assay with mevalonate pathway metabolites in primary CGE and MGE cells. Type of test: cell-based, mouse. The conditions noted are these: FOH 0.1-100 μM, GGOH 0.01-100 μM, FIG. 2G-J. The text has this:
For all luciferase experiments, enhancers were cloned into the pGL3 promoter vector (Promega) using the KpnI and NheI restriction sites on the 5′ and 3′ sites, respectively. The Calb1 enhancers (site 1, site 2, and site 3), AkrR enhancers (site 1 and site 2), NPY enhancers (site 1 and site 2), and SST enhancer (site 1) were identified by MACS2 peak analysis of ChIP-seq (DNA sequences obtained from the UCSC genome browser). Primers were designed to PCR amplify enhancer sequences from C57BL/6J mouse genomic DNA into expression plasmids.
MGE and CGE tissues were dissected from E13.5 Swiss Webster embryos, dissociated in L15 media by pipetting several times, and spun through a cell strainer for single cell preparations. Briefly, cells were seeded at a density of 2.5×10^5 cells per cm^2 (Flandin et al. 2011). One day prior to seeding cells, 24-well plates were coated with poly-L-lysine (30 μg/mL; Sigma) and laminin (5 μg/mL; Sigma), while 96-well plates were coated with poly-L-lysine (3 μg/mL; Sigma) and laminin (5 μg/mL; Sigma). Initially, cells were seeded in neurobasal medium (DMEM/F-12 supplemented with L-glutamate, B-27 (Gibco), N2 supplement (Gibco), bovine pituitary extract (35 μg/mL; Life Technologies), mito+ serum extender (BD Biosciences), penicillin (100 U/mL; Gibco), streptomycin (100 μg/mL; Gibco), and glutamax (0.8 mM; Gibco)). […]

Consider `CC(C)=CCC/C(C)=C/CC/C(C)=C/CC/C(C)=C/CO` [GGOH, geranylgeraniol], for which the “effect on AkrRE1/2 luciferase reporters, normalized to buffer alone” value is “dose-dependent, enhancer- and region-specific effects”.

Turning to `CC(C)=CCCC(C)=CCCC(C)=CCO` [FOH, farnesol], the “effect on AkrRE1/2 luciferase reporters, normalized to buffer alone” value is “dose-dependent, enhancer- and region-specific effects”.
